Measurements published in PubChem BioAssay AID1963869 (Molecular Pharmacology Branch, DTP, NCI, 2024).

Tested on: KRAS patient-derived spheroids with HUVEC/MSC, viability
Test: Anticancer human tumor 323965-272-R-J2-PDC patient-derived pancreatic carcinoma cell line growth inhibition [KRAS2]
Conditions: for IC50: curve of first compound; for viability, T/C: stronger effect = lower value
How it was run: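 Combination screen of spheroid viability in tumor-cell co-cultures with endothelial (HUVEC) and mesenchymal stem cell stroma. Each agent was tested in half-log dilutions, topping at clinical Cmax or at 10 microM without a known Cmax.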

[1] = second compound 0.0316 µM, first compound 0.0316 µM
[2] = second compound 0.0316 µM, first compound 0.1 µM
[3] = second compound 0.1 µM, first compound 0.0316 µM
[4] = second compound 0.1 µM, first compound 0.1 µM
[5] = second compound 0.316 µM, first compound 0.0316 µM
[6] = second compound 0.316 µM, first compound 0.1 µM
[7] = second compound 1 µM, first compound 0.0316 µM
[8] = second compound 1 µM, first compound 0.1 µM
[9] = second compound 3.16 µM, first compound 0.0316 µM
[10] = second compound 3.16 µM, first compound 0.1 µM
[11] = second compound 0.0316 µM, first compound 0.316 µM
[12] = second compound 0.0316 µM, first compound 1 µM
[13] = second compound 0.0316 µM, first compound 3.16 µM
[14] = second compound 0.0316 µM, first compound 10 µM
[15] = second compound 0.1 µM, first compound 0.316 µM
[16] = second compound 0.1 µM, first compound 1 µM
[17] = second compound 0.1 µM, first compound 3.16 µM
[18] = second compound 0.1 µM, first compound 10 µM
[19] = second compound 0.316 µM, first compound 0.316 µM
[20] = second compound 0.316 µM, first compound 1 µM
[21] = second compound 0.316 µM, first compound 3.16 µM
[22] = second compound 0.316 µM, first compound 10 µM
[23] = second compound 1 µM, first compound 0.316 µM
[24] = second compound 1 µM, first compound 1 µM
[25] = second compound 1 µM, first compound 3.16 µM
[26] = second compound 1 µM, first compound 10 µM
[27] = second compound 3.16 µM, first compound 0.316 µM
[28] = second compound 3.16 µM, first compound 1 µM
[29] = second compound 3.16 µM, first compound 3.16 µM
[30] = second compound 3.16 µM, first compound 10 µM
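Further: spheroids exposed to agents for 7 days.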
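Wherever viability, T/C is given: 100% = DMSO vehicle control viability.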

CN(C)C/C=C/C(=O)Nc1cc2c(Nc3ccc(F)c(Cl)c3)ncnc2cc1O[C@H]1CCOC1 + C=CC(=O)N1CCN(c2nc(OCC3CCCN3C)nc3c2CCN(c2cccc4cccc(C)c24)C3)CC1CC#N
IC50 (second compound 0.0316 µM): 13 nM | IC50 (second compound 0.1 µM): 1.77 nM | IC50 (second compound 0.316 µM): 2.3 nM | IC50 (second compound 1 µM): 2.3 nM | IC50 (second compound 3.16 µM): < 0.316 nM | viability, T/C (second compound 0.0316 µM, first compound 0.000316 µM): 75.1% | viability, T/C (second compound 0.0316 µM, first compound 0.001 µM): 66.2% | viability, T/C (second compound 0.0316 µM, first compound 0.00316 µM): 55.9% | viability, T/C (second compound 0.0316 µM, first compound 0.01 µM): 49.6% | viability, T/C [1]: 49.9% | viability, T/C [2]: 47.9% | viability, T/C (second compound 0.1 µM, first compound 0.000316 µM): 66% | viability, T/C (second compound 0.1 µM, first compound 0.001 µM): 52.5% | viability, T/C (second compound 0.1 µM, first compound 0.00316 µM): 48.4% | viability, T/C (second compound 0.1 µM, first compound 0.01 µM): 42.4% | viability, T/C [3]: 40.9% | viability, T/C [4]: 42.3% | viability, T/C (second compound 0.316 µM, first compound 0.000316 µM): 56.2% | viability, T/C (second compound 0.316 µM, first compound 0.001 µM): 51.1% | viability, T/C (second compound 0.316 µM, first compound 0.00316 µM): 53.2% | viability, T/C (second compound 0.316 µM, first compound 0.01 µM): 43.1% | viability, T/C [5]: 39.2% | viability, T/C [6]: 39.1% | viability, T/C (second compound 1 µM, first compound 0.000316 µM): 62.5% | viability, T/C (second compound 1 µM, first compound 0.001 µM): 52.4% | viability, T/C (second compound 1 µM, first compound 0.00316 µM): 52.6% | viability, T/C (second compound 1 µM, first compound 0.01 µM): 41.9% | viability, T/C [7]: 40.7% | viability, T/C [8]: 42.5% | viability, T/C (second compound 3.16 µM, first compound 0.000316 µM): 36.8% | viability, T/C (second compound 3.16 µM, first compound 0.001 µM): 34.9% | viability, T/C (second compound 3.16 µM, first compound 0.00316 µM): 19.4% | viability, T/C (second compound 3.16 µM, first compound 0.01 µM): 17.3% | viability, T/C [9]: 17% | viability, T/C [10]: 14.7%

COC(=O)c1ccc2c(C(=Nc3ccc(N(C)C(=O)CN4CCN(C)CC4)cc3)c3ccccc3)c(O)[nH]c2c1 + C=CC(=O)N1CCN(c2nc(OCC3CCCN3C)nc3c2CCN(c2cccc4cccc(C)c24)C3)CC1CC#N
IC50 (second compound 0.0316 µM): 1640 nM | IC50 (second compound 0.1 µM): 993 nM | IC50 (second compound 0.316 µM): 388 nM | IC50 (second compound 1 µM): 873 nM | IC50 (second compound 3.16 µM): < 31.6 nM | viability, T/C [1]: 76.7% | viability, T/C [2]: 73.2% | viability, T/C [11]: 69.8% | viability, T/C [12]: 61.8% | viability, T/C [13]: 35.4% | viability, T/C [14]: 19.6% | viability, T/C [3]: 66.7% | viability, T/C [4]: 68.8% | viability, T/C [15]: 65.8% | viability, T/C [16]: 49.3% | viability, T/C [17]: 28.1% | viability, T/C [18]: 19.7% | viability, T/C [5]: 63.8% | viability, T/C [6]: 67.3% | viability, T/C [19]: 49.6% | viability, T/C [20]: 38.3% | viability, T/C [21]: 20.6% | viability, T/C [22]: 18.2% | viability, T/C [7]: 64.9% | viability, T/C [8]: 62.8% | viability, T/C [23]: 58.4% | viability, T/C [24]: 49.5% | viability, T/C [25]: 23.4% | viability, T/C [26]: 16.8% | viability, T/C [9]: 26.2% | viability, T/C [10]: 25.4% | viability, T/C [27]: 30% | viability, T/C [28]: 15.6% | viability, T/C [29]: 9.71% | viability, T/C [30]: 5.57%

O=C(c1cc(Cc2n[nH]c(=O)c3ccccc23)ccc1F)N1CCN(C(=O)C2CC2)CC1 + C=CC(=O)N1CCN(c2nc(OCC3CCCN3C)nc3c2CCN(c2cccc4cccc(C)c24)C3)CC1CC#N
IC50 (second compound 0.0316 µM): 8150 nM | IC50 (second compound 0.1 µM): > 10000 nM | IC50 (second compound 0.316 µM): 4290 nM | IC50 (second compound 1 µM): 6240 nM | IC50 (second compound 3.16 µM): < 31.6 nM | viability, T/C [1]: 79.1% | viability, T/C [2]: 77.5% | viability, T/C [11]: 76.1% | viability, T/C [12]: 71.6% | viability, T/C [13]: 74.3% | viability, T/C [14]: 44.9% | viability, T/C [3]: 61.4% | viability, T/C [4]: 64.6% | viability, T/C [15]: 61.8% | viability, T/C [16]: 60.4% | viability, T/C [17]: 57.5% | viability, T/C [18]: 48.5% | viability, T/C [5]: 57.8% | viability, T/C [6]: 60.1% | viability, T/C [19]: 55.4% | viability, T/C [20]: 58% | viability, T/C [21]: 51.8% | viability, T/C [22]: 43.1% | viability, T/C [7]: 61.6% | viability, T/C [8]: 63.5% | viability, T/C [23]: 63.3% | viability, T/C [24]: 59.7% | viability, T/C [25]: 50.8% | viability, T/C [26]: 48.3% | viability, T/C [9]: 33.7% | viability, T/C [10]: 27.4% | viability, T/C [27]: 25.1% | viability, T/C [28]: 31.8% | viability, T/C [29]: 34.7% | viability, T/C [30]: 25.1%
